Assay results: US20020198254A1, “Polyamide analogs” (priority 2000, published 2002)
≈ marks a conversion by molar mass, not a printed value. Where two headings read alike, the source gives them in different places.

Key:
Assay type in all cases: cell-based
Moraxella catarrhalis = experiment: MIC assay, M. catarrhalis; details: BHI, 16 h
Method: (§1) These assays are adapted from NCCLS protocols M7-A4 and M27-A (NCCLS vol 17:9 and vol 17:2) as modified by Sandven, S. Clin. Micro. (1999) 37:12, p.3856-3859. MIC values for Aspergillus fumigatus were determined using NCCLS protocol M38-P.
(§2) All compounds were dissolved in 100% DMSO to a stock concentration of 10 mM and use fresh or stored at −80° C. Stock compounds were kept frozen until needed and used freshly with no more then one freeze-thaw cycle. When used for test purposes, compounds were diluted in the appropriate media depending on the organism being tested.
(§3) For yeast and aspergillus species, seven 1:2 serial dilutions of compound in appropriate media buffered with MOPS at pH 7.0 were prepared such that the final starting test compound concentrations were 50.0 uM for yeast and 50 uM aspergillus species. For bacteria, dilutions were made in growth media used for the particular bacteria being tested.
(§4) Inoculums are made in the same manner as yeast except all dilutions are made in normal saline, with a final dilution of 1:200 and an inoculum of 10 μL. VRE are vancomycin resistant enterococci, BM4147 and UCD-3 represent two different sources of VRE. MRSA are […] resistant Staphylococcus Aureus.

[1] = system: VRE-UCD3 (vancomycin resistant enterococci); experiment: MIC assay, VRE strain UCD-3; details: for MIC: Enterococcus, VRE
Method: as §1, §2, §3, §4

Bacillus cereus = experiment: MIC assay, B. cereus; details: CAMHB, 16 h; for MIC: Bacillus cereus, read-out: MIC Assay Other Strains: B. cereus
Method: as §1, §2, §3, §4

Candida albicans = experiment: MIC assay, yeast C. albicans; details: RPMI, 48 h, Alamar Blue; for MIC: Candida albicans
[2] = system: VRE-BM4147 (vancomycin resistant enterococci); experiment: MIC assay, VRE strain BM4147; details: for MIC: Enterococcus, VRE
Method: as §1, §2, §3, §4

Pseudomonas aeruginosa = experiment: MIC assay, P. aeruginosa; details: CAMHB, 16 h
Method: as §1, §2, §3, §4

Streptococcus pneumoniae = experiment: MIC assay, S. pneumoniae; details: CAMHB + 5% LHB, 24 h
Method: as §1, §2, §3, §4

[3] = system: VRE-CSUC4 (vancomycin resistant enterococci); experiment: MIC assay, VRE strain CSUC-4; details: for MIC: Enterococcus, VRE
Method: as §1, §2, §3, §4

Staphylococcus aureus = experiment: MIC assay, S. aureus; details: CAMHB, 16 h
Method: as §1, §2, §3, §4

Haemophilus influenzae = experiment: MIC assay, H. influenzae; details: HTM, 24 h
Method: as §1, §2, §3, §4

[4] = system: VRE-UL17 (vancomycin resistant enterococci); experiment: MIC assay, VRE strain UL-17; details: for MIC: Enterococcus, VRE
Method: as §1, §2, §3, §4

E coli = experiment: MIC assay, E coli
Method: as §1, §2, §3, §4

Aspergillus fumigatus = experiment: MIC assay, filamentous fungi A. fumigatus; details: Aspergillus fumigatus; 48 h at 35C, no visible growth
[5] = system: MRSA (methylacillin resistant Staphylococcus Aureus); experiment: MIC assay, MRSA; details: Staphylococcus aureus, MRSA
Method: as §1, §2, §3, §4

WST-CEM T-cell line = experiment: Toxicity screen on WST-CEM T-cell line; details: WST-CEM T-cell line; ND = no drug control
Method: Toxicity screen was done on a WST-CEM T-cell line and the minimum percent verses a no drug control was measured.

[6] = 25 μg/mL Vancomycin - 24 h, read-out: MIC Assay VRE Strains: UCD-3 van25
[7] = 25 μg/mL Vancomycin - 24 h, read-out: MIC Assay VRE Strains: BM4147 van25

Row | Structure (SMILES) | MIC Assay Other Strains: M. catarrhalis (Moraxella catarrhalis) [µM] | MIC Assay VRE Strains: UCD-3 van25 ([1]; 25 μg/mL Vancomycin - 24 h) [µM] | MIC Assay VRE Strains: UCD-3 van0 ([1]; No vancomycin - 16 h) [µM] | MIC Assay Other Strains: B. cereus (Bacillus cereus) [µM] | MIC Assay C. Albicans (Candida albicans) [µM] | MIC Assay VRE Strains: BM4147 van25 ([2]; 25 μg/mL Vancomycin - 24 h) [µM] | MIC Assay VRE Strains: BM4147 van0 ([2]; No vancomycin - 16 h) [µM] | MIC Assay Other Strains: P. aeruginosa (Pseudomonas aeruginosa) [µM] | MIC Assay Other Strains: S. pneumoniae (Streptococcus pneumoniae) [µM] | MIC Assay VRE Strains: CSUC-4 van25 ([3]; 25 μg/mL Vancomycin - 24 h) [µM] | MIC Assay VRE Strains: CSUC-4 van0 ([3]; No vancomycin - 16 h) [µM] | MIC Assay Other Strains: S. aureus (Staphylococcus aureus) [µM] | MIC Assay Other Strains: H influenzae (Haemophilus influenzae) [µM] | MIC Assay VRE Strains: UL-17 van25 ([4]; 25 μg/mL Vancomycin - 24 h) [µM] | MIC Assay VRE Strains: UL-17 van0 ([4]; No vancomycin - 16 h) [µM] | MIC [1, 6] [µM] | MIC (Bacillus cereus) [µM] | MIC (Candida albicans) [µM] | MIC [2, 7] [µM] | also measured
1 | Cn1cc(NC(=O)CN)cc1C(=O)Nc1cc(C(=O)NC2CCC(CC3CCC(NC(=O)c4cc(NC(=O)c5cc(NC(=O)CN)cn5C)cn4C)CC3)CC2)n(C)c1 (centres unmarked) [Compound 21] | >45.5 | >45.5 | >45.5 | >45.5 | >44.4 | >45.5 | >45.5 | >45.5 | >45.5 | >45.5 | >45.5 | >45.5 | >45.5 | >45.5 | >45.5 |  |  |  |  | 
2 | Cn1cc(NC(=O)c2cc(NC(=O)CN)cn2C)cc1C(=O)NCCCNCCCNC(=O)c1cc(NC(=O)c2cc(NC(=O)CN)cn2C)cn1C [Compound 113] |  |  |  |  |  |  |  |  |  |  |  |  |  |  |  | 11.4 | 11.4 (≈ 8.37 µg/mL) | > 44.4 | 22.7 | MIC (Moraxella catarrhalis; Moraxella catarrhalis, read-out: MIC Assay Other Strains: M. catarrhalis): 5.7 µM (≈ 4.18 µg/mL); MIC ([1]; No vancomycin - 16 h, read-out: MIC Assay VRE Strains: UCD-3 van0): 22.7 µM (≈ 16.7 µg/mL); MIC ([2]; No vancomycin - 16 h, read-out: MIC Assay VRE Strains: BM4147 van0): 22.7 µM (≈ 16.7 µg/mL); MIC (Pseudomonas aeruginosa; Pseudomonas aeruginosa, read-out: MIC Assay Other Strains: P. aeruginosa): > 45.5 µM; MIC (Streptococcus pneumoniae; Streptococcus pneumoniae, read-out: MIC Assay Other Strains: S. pneumoniae): 11.4 µM; MIC ([3]; 25 μg/mL Vancomycin - 24 h, read-out: MIC Assay VRE Strains: CSUC-4 van25): 45.5 µM; MIC ([3]; No vancomycin - 16 h, read-out: MIC Assay VRE Strains: CSUC-4 van0): 22.7 µM (≈ 16.7 µg/mL); MIC (Staphylococcus aureus; Staphylococcus aureus, read-out: MIC Assay Other Strains: S. aureus): > 45.5 µM; MIC (Haemophilus influenzae; Haemophilus influenzae, read-out: MIC Assay Other Strains: H influenzae): > 45.5 µM; MIC ([4]; 25 μg/mL Vancomycin - 24 h, read-out: MIC Assay VRE Strains: UL-17 van25): 22.7 µM; MIC ([4]; No vancomycin - 16 h, read-out: MIC Assay VRE Strains: UL-17 van0): > 45.5 µM
3 | NCC(=O)Nc1cc(C(=O)NCCNC(=O)c2cc(NC(=O)CN)cn2CC2CC2)n(CC2CC2)c1 [Compound 169, Bis-1,2-[4-(2-amino-acetylamino)-1-cyclopropylmethyl-1H-pyrrol-2-yl-carbonylamino]-ethane] |  |  |  |  |  |  |  |  |  |  |  |  |  |  |  | > 45.5 | > 45.5 | > 44.4 | > 45.5 | MIC (E coli): 45.5 µM (≈ 22.7 µg/mL); MIC (Aspergillus fumigatus): > 50 µM; MIC [5]: > 45.5 µM; CEM: toxicity screen, minimum percent verses a no drug control (WST-CEM T-cell line): 100% ND
4 | Cn1cc(NC(=O)c2cc(NC(=O)CN)cn2C)cc1C(=O)NCCCN(CCCNC(=O)c1cc(NC(=O)c2cc(NC(=O)CN)cn2C)cn1C)C(=O)OCc1ccccc1 [Compound 42] | 11.4 (≈ 9.89 µg/mL) | 45.5 | 45.5 (≈ 39.5 µg/mL) | 11.4 (≈ 9.89 µg/mL) | >44.4 | >45.5 | >45.5 | >45.5 | 1.4 | 22.7 | 22.7 (≈ 19.7 µg/mL) | >45.5 | >45.5 | 45.5 | 22.7 (≈ 19.7 µg/mL) |  |  |  |  | 
